Assay [1] addresses T1, α4β1 integrin (Jurkat T-cell adhesion to IL-1 stimulated endothelial cell monolayers) (Homo sapiens, UniProt P05556+P13612).
T1 construct: a T-cell line, Jurkat, known to express the α4β1 integrin; host or cells: Jurkat T-cell line
Put plainly: Jurkat-endothelial cell adhesion assay (Jurkat EC). To be noted: Jurkat cells on IL-1 stimulated human umbilical vein endothelial cells; read-out: JK/EC (Jurkat EC Assay IC50 value range). It is filed as cell-based. Summed up: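 Adhesion was expressed as percent of compound-free fluorescence after 20 min at 37° C (following 5 min settling on ice) of BCECF-loaded Jurkat T cells on washed HUVEC monolayers. The endothelium, passage 6 or lower, had received 0.1 ng/ml recombinant IL-1 for 4 hr at 37° C; compound was premixed with the T cells, typically at 100, 20, 5 and 1.25 μM.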

Assay [2] addresses T2, α4β1 integrin (Jurkat cell adhesion to immobilized CS-1 derived peptide CLHPGEILDVPST) (Homo sapiens, UniProt P05556+P13612).
T2 construct: 100 μl of Jurkat cells (2.5×10^6 cells/ml) in DMEM plus BSA; host or cells: Jurkat T-cell line
Put plainly: Jurkat-CS-1 assay. It is filed as cell-based. To be noted: Jurkat cells on CS-1 peptide coated plates; read-out: JK/CS-1 (Jurkat CS-1 Assay IC50 value range). The procedure: The CS-1 derived peptide, CLHPGEILDVPST, and the scrambled control peptide, CLHGPIELVSDPT, were synthesized on a Beckman 990 synthesizer using t-Boc methodology. The peptides were immobilized onto microtiter plates using the heterobifunctional crosslinker 3-(2-pyridyldithio)propionic acid N-hydroxysuccinimide ester (SPDP) as reported by Pierschbacher et al., Proc. Natl. Acad. USA, 80:1224-1227 (1983). Microtiter plates were coated with 20 μg/ml HSA for 2 hr. at room temperature, washed once with PBS and derivatized with 10 μg/ml SPDP for 1 hr. After washing, 100 μl of a 100 μg/ml cysteine containing peptide solution which had been recently dissolved was added to the wells and allowed to crosslink to the plates overnight at 4° C. Unbound peptide was removed from plates by washing with PBS. To block non-reacted sites, the plates are coated with 100 μl of a 2.5 mg/ml BSA solution in PBS for 1 hr. at 37° C. 100 μl of Jurkat cells (2.5×10^6 cells/ml) in DMEM plus BSA (2.5 mg/ml) was mixed with an appropriate concentration of the compound to be tested and the mixture was added to peptide coated dishes and incubated for 1 hr. at 37° C. Generally 100, 20, 5 and 1.25 μM concentrations of the compound were tested.
Following this incubation the plates were washed once with PBS and the attached cells were fixed with 3% paraformaldehyde in PBS and stained with 0.5% toluidine blue in 3.7% formaldehyde. The cells were stained overnight at room temperature and the optical density at 590 nm of toluidine blue stained cells was determined using a vertical pathway spectrophotometer to quantitate attachment (VMAX Kinetic Microplate Reader, Molecular Devices, Menlo Park, Calif.). This procedure is a modification of a previously published method (Cardarelli et al, J. Biol. Chem., 269:18668-18673 (1994) and Cardarelli et al, Proc. Natl. Acad. Sci. USA, 83:2647-2651 (1986)).

T2 sequence (P13612 34-1032): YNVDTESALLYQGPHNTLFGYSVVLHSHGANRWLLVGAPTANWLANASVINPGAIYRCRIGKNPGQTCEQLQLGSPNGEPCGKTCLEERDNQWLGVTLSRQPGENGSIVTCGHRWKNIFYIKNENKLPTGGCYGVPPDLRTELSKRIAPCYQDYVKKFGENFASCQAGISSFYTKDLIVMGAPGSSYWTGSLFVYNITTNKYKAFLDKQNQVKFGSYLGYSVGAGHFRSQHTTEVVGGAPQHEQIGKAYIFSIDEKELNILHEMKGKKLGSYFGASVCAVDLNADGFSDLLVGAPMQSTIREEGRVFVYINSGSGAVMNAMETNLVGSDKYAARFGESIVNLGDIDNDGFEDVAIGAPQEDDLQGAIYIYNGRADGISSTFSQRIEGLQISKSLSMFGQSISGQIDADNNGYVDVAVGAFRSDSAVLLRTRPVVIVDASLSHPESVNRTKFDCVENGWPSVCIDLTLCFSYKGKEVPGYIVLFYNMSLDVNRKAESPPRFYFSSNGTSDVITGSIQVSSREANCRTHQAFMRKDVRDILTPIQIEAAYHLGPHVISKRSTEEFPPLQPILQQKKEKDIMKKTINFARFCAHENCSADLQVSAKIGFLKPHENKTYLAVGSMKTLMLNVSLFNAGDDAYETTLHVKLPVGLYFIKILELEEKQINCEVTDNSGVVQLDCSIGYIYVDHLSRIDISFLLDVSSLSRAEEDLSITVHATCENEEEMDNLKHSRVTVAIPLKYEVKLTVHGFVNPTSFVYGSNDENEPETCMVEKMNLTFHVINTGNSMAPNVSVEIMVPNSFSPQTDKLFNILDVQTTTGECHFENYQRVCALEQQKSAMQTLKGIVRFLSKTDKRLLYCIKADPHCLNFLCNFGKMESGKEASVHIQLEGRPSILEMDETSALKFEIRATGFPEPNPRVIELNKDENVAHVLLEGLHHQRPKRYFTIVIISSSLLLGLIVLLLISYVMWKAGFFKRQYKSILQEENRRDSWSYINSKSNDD
T2 sequence (P05556 21-798): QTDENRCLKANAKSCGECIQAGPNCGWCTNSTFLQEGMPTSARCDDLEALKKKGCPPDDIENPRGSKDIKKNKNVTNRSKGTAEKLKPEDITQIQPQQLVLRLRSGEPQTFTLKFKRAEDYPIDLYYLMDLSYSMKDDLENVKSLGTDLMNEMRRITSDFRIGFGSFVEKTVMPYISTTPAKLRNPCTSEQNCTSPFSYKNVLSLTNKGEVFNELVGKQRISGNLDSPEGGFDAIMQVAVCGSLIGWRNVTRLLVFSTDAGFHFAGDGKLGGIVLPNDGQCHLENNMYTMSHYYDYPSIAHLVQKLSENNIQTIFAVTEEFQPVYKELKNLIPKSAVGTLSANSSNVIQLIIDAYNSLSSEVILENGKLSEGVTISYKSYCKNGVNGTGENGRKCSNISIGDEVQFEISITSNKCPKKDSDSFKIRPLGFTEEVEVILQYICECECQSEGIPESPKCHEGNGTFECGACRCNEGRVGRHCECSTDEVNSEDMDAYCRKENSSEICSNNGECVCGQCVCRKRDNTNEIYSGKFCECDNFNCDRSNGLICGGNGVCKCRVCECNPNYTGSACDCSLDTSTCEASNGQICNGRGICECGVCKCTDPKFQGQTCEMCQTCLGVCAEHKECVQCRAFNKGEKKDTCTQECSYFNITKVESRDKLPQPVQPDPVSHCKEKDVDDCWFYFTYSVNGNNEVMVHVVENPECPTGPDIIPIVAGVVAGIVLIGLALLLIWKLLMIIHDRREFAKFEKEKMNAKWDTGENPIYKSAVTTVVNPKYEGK
T1 sequence (P13612 34-1032): as the sequence (P13612 34-1032) above
T1 sequence (P05556 21-798): as the sequence (P05556 21-798) above

For `COC(=O)CCC(=O)N1CSC[C@@H]1C(=O)N[C@@H](Cc1ccc(NC(=O)c2c(Cl)cccc2Cl)cc1)C(=O)OC` (relative stereo) [Example 8, [S-(R*,R*)]-4-[[[1-[[4-[(2,6-Dichlorobenzoyl)amino]phenyl]methyl]-2-methoxy-2-oxoethyl]amino]carbonyl]-γ-oxo-3-thiazolidinebutanoic Acid 3-Methyl Ester], the IC50 in assay [1] was 250 to 1000 nM; in assay [2] it was 50 to 750 nM.
Regarding `O=C(O)CCC(=O)N1CSC[C@@H]1C(=O)N[C@@H](Cc1ccc(NC(=O)c2c(Cl)cccc2Cl)cc1)C(=O)O` (relative stereo) [Example 9, [S-(R*,R*)]-4-[[[1-Carboxy-2-[4-[(2,6-dichlorobenzoyl)amino]phenyl]ethyl]amino]carbonyl]-γ-oxo-3-thiazolidinebutanoic Acid], the IC50 in assay [1] is no more than 250 nM; in assay [2], no more than 50 nM.
Regarding `CC(C)(C)OC(=O)N1CSC[C@@H]1C(=O)N[C@@H](Cc1ccc(NC(=O)c2c(Cl)cccc2Cl)cc1)C(=O)O` (relative stereo) [Example 10, [S-(R*,R*)]-4-[[[1-Carboxy-2-[4-[(2,6-dichlorobenzoyl)amino]phenyl]ethyl]amino]carbonyl]-3-thiazolidinecarboxylic Acid 3-(1,1-Dimethylethyl)ester], the values for the IC50 in assay [1] and in assay [2] were no more than 250 nM and no more than 50 nM, respectively.
The like results for `CCOC(=O)N1CSC[C@H]1C(=O)N[C@@H](Cc1ccc(NC(=O)c2c(Cl)cccc2Cl)cc1)C(=O)OC` (relative stereo) [Example 15, [R-(R*,S*)]-4-[[[1-[[4-[(2,6-Dichlorobenzoyl)amino]phenyl]methyl]-2-methoxy-2-oxoethyl]amino]carbonyl]-3-thiazolidinecarboxylic Acid 3-Ethyl Ester] were, in that order, no less than 1000 nM and no less than 750 nM.
The like results for `CCOC(=O)N1CSC[C@H]1C(=O)N[C@@H](Cc1ccc(NC(=O)c2c(Cl)cccc2Cl)cc1)C(=O)O` (relative stereo) [Example 16, [R-(R*,S*)]-4-[[[1-Carboxy-2-[4-[(2,6-dichlorobenzoyl)amino]phenyl]ethyl]amino]carbonyl]-3-thiazolidinecarboxylic Acid 3-Ethyl Ester] were, in that order, no more than 250 nM and 50 to 750 nM.
As to `COC(=O)[C@H](Cc1ccc(NC(=O)c2c(Cl)cccc2Cl)cc1)NC(=O)[C@H]1N(C(=O)OC(C)(C)C)CSC1(C)C` (relative stereo) [Example 17, [R-(R*,S*)]-4-[[[1-[[4-[(2,6-Dichlorobenzoyl)amino]phenyl]methyl]-2-methoxy-2-oxoethyl]amino]carbonyl]-5,5-dimethyl-3-thiazolidinecarboxylic Acid 3-(1,1-Dimethylethyl)ester], the IC50 in assay [1] was no less than 1000 nM; in assay [2], no less than 750 nM.
On the same counts, the results for `COC(=O)[C@H](Cc1ccc(NC(=O)c2c(Cl)cccc2Cl)cc1)NC(=O)[C@H]1CSCN1C(=O)OCC1c2ccccc2-c2ccccc21` (relative stereo) [Example 18] are no less than 1000 nM and no less than 750 nM.
With `O=C(Nc1ccc(C[C@H](NC(=O)[C@H]2CSCN2C(=O)OCC2c3ccccc3-c3ccccc32)C(=O)O)cc1)c1c(Cl)cccc1Cl` (relative stereo) [Example 19], the IC50 in assay [1] was no more than 250 nM; in assay [2] it was 50 to 750 nM.
The like results for `COC(=O)[C@H](Cc1ccc(NC(=O)c2c(Cl)cccc2Cl)cc1)NC(=O)[C@H]1CSCN1C(=O)OCc1ccccc1` (relative stereo) [Example 20, [S-(R*,R*)]-4-[[[1-[[4-[(2,6-Dichlorobenzoyl)amino]phenyl]methyl]-2-methoxy-2-oxoethyl]amino]carbonyl]-3-thiazolidinecarboxylic Acid 3-Phenylmethyl Ester] were, in that order, no less than 1000 nM and no less than 750 nM.
Take `O=C(Nc1ccc(C[C@H](NC(=O)[C@H]2CSCN2C(=O)OCc2ccccc2)C(=O)O)cc1)c1c(Cl)cccc1Cl` (relative stereo) [Example 21, [S-(R*,R*)]-4-[[[1-Carboxy-2-[4-[(2,6-dichlorobenzoyl)amino]phenyl]ethyl]amino]carbonyl]-3-thiazolidinecarboxylic Acid 3-Phenylmethyl Ester]: the IC50 in assay [1] is no more than 250 nM; in assay [2], 50 to 750 nM.
The like results for `COC(=O)[C@H](Cc1ccc(NC(=O)c2c(Cl)cccc2Cl)cc1)NC(=O)[C@H]1CSCN1C(=O)OC12CC3CC(CC(C3)C1)C2` (relative stereo) [Example 22, [S-(R*,R*)]-4-[[[1-[[4-[(2,6-Dichlorobenzoyl)amino]phenyl]methyl]-2-methoxy-2-oxoethyl]amino]carbonyl]-3-thiazolidinecarboxylic Acid 3-(Tricyclo[3.3.1.1^3,7]dec-1-yl)ester] were, in that order, no less than 1000 nM and no less than 750 nM.
On the same counts, the results for `O=C(Nc1ccc(C[C@H](NC(=O)[C@H]2CSCN2C(=O)OC23CC4CC(CC(C4)C2)C3)C(=O)O)cc1)c1c(Cl)cccc1Cl` (relative stereo) [Example 23, [S-(R*,R*)]-4-[[[1-Carboxy-2-[4-[(2,6-dichlorobenzoyl)amino]phenyl]ethyl]amino]carbonyl]-3-thiazolidinecarboxylic Acid 3-(Tricyclo[3.3.1.1^3,7]dec-1-yl)ester] are no more than 250 nM and no more than 50 nM.
In the case of `COC(=O)[C@H](Cc1ccc(NC(=O)c2c(Cl)cccc2Cl)cc1)NC(=O)[C@H]1CSCN1C(=O)OCCN1CCOCC1` (relative stereo) [Example 24, [S-(R*,R*)]-4-[[[1-[[4-[(2,6-Dichlorobenzoyl)amino]phenyl]methyl]-2-methoxy-2-oxoethyl]amino]carbonyl]-3-thiazolidinecarboxylic Acid 3-[2-(4-Morpholinyl)ethyl]ester], the results for the IC50 in assay [1] and in assay [2] were 250 to 1000 nM and 50 to 750 nM, respectively.
On the same counts, the results for `O=C(Nc1ccc(C[C@H](NC(=O)[C@H]2CSCN2C(=O)OCCN2CCOCC2)C(=O)O)cc1)c1c(Cl)cccc1Cl` (relative stereo) [Example 25, [S-(R*,R*)]-4-[[[1-Carboxy-2-[-4-[(2,6-dichlorobenzoyl)amino]phenyl]ethyl]amino]carbonyl]-3-thiazolidinecarboxylic Acid 3-[2-(4-Morpholinyl)ethyl]ester] are no more than 250 nM and no more than 50 nM.
The like results for `COC(=O)[C@H](Cc1ccc(NC(=O)c2c(Cl)cccc2Cl)cc1)NC(=O)[C@@H]1N(C(=O)OC(C)(C)C)CSC1(C)C` (relative stereo) [Example 28, [S-(R*,R*)]-4-[[[1-[[4-[(2,6-Dichlorobenzoyl)amino]phenyl]methyl]-2-methoxy-2-oxoethyl]amino]carbonyl]-5,5-dimethyl-3-thiazolidinecarboxylic Acid 3-(1,1-Dimethylethyl)ester] were, in that order, no less than 1000 nM and no less than 750 nM.
Consider `CC(C)(C)OC(=O)N1CSC(C)(C)[C@@H]1C(=O)N[C@@H](Cc1ccc(NC(=O)c2c(Cl)cccc2Cl)cc1)C(=O)O` (relative stereo) [Example 29, [S-(R*,R*)]-4-[[[1-Carboxy-2-[4-[(2,6-dichlorobenzoyl)amino]phenyl]ethyl]amino]carbonyl]-5,5-dimethyl-3-thiazolidinecarboxylic Acid 3-(1,1-Dimethylethyl)ester], for which the values for the IC50 in assay [1] and in assay [2] were 250 to 1000 nM and 50 to 750 nM, respectively.

Source of the values: patent US6685617B1, “Inhibitors of α4β1 mediated cell adhesion” (Pharmacia & Upjohn Company, priority 1998, dated 2004).
